In turn, `O=C(NCc1ccccc1)C1C=Nc2ccccc2S1` (stereo not shown) returned a melting point of 160 to 162 °C.

(Values after US6448246B1 (dated 2002).)
